Test results from patent US11401271B2, “Fused heterocyclic compound, pyrazole-ring-containing fused heterocyclic compound, agricultural composition containing thereof, and method of using the composition” (SOUTH CHINA AGRICULTURAL UNIVERSITY, priority 2017, dated 2022).

Experiments:
Assay in all cases: whole plant or invertebrate
Assay type in all cases: in vivo
Plutella xylostella = details: 500 ppm; 2nd-instar larvae, leaf immersion feeding
Procedure, shortened: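 Cabbage leaf discs dipped 5 s in compound at 500 ppm (0.05% Tween-80 aqueous), air-dried, fed to about 35 2nd-instar larvae at 28° C., triplicate. Dead larvae counted after 24 h; mortality (%) corrected against Tween-80 control.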

Aphis craccivora = details: 500 ppm, wingless adults; for Aphis craccivora Mortality (%) 500 ppm: impregnation method, 24 hours; for Aphis craccivora Mortality (%): immersion 5 seconds, counted after 24 hours
Procedure, shortened: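 Wingless adults feeding on bean sprouts were dipped with the sprouts for 5 s in 500 ppm compound in aqueous 0.05% Tween-80, air-dried, then held at 23° C. Dead aphids counted after 24 h, triplicate, with 0.05% Tween-80 as control. Mortality (%) = (control live − treated live)/control live × 100.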

Solenopsis invicta = details: 100 ppm, water test tube poison-feeding
Procedure, shortened: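 Fire ants fed compound by water test-tube poison-feeding at 100 ppm in aqueous 0.05% Tween-80/5% honey (from 10 g/L DMSO stock), kept at 25 °C. Live and dead ants counted at 24 and 72 h; mortality (%) calculated relative to live ants in the untreated control.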

Spodoptera exigua = details: 500 ppm, 2nd-instar larvae, leaf immersion feeding; for Spodoptera exigua Mortality (%) 500 ppm: 24 hours
Procedure, shortened: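 Cabbage leaf discs dipped 5 s in 500 ppm compound (0.05% Tween-80 aqueous), air-dried, fed to about 35 2nd-instar larvae at 28° C, three replicates. Deaths counted at 24 h; mortality corrected against Tween-80 control.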

SMILES | Plutella xylostella Mortality (%) 500 ppm (Plutella xylostella) | Aphis craccivora Mortality (%) 500 ppm (Aphis craccivora) | Solenopsis invicta Mortality (%) 100 ppm 24 h (Solenopsis invicta) | Solenopsis invicta Mortality (%) 100 ppm 72 h (Solenopsis invicta) | Spodoptera exigua Mortality (%) 500 ppm (Spodoptera exigua) | Plutella xylostella Mortality (%) (Plutella xylostella) | Aphis craccivora Mortality (%) (Aphis craccivora) | Solenopsis invicta Mortality (%) 24 h (Solenopsis invicta) | Solenopsis invicta Mortality (%) 72 h (Solenopsis invicta) | Spodoptera exigua Mortality (%) (Spodoptera exigua)
N#Cc1nn2c(c1[S+]([O-])C(F)(F)F)NC(Cl)(CBr)c1cc(C(F)(F)F)cnc1-2 (stereo not shown) [a-45] | 100% | 100% | 20% | 90% | 91% |  |  |  |  | 
CC1(C)Nc2c([S+]([O-])C(F)(F)F)c(C#N)nn2-c2ncc(C(F)(F)F)cc21 (stereo not shown) [a-51] | 91% | 100% | 16% | 95% | 89% |  |  |  |  | 
N#Cc1nn2c(c1[S+]([O-])C(F)(F)F)NC(C#N)(C#N)c1cc(C(F)(F)F)cnc1-2 (stereo not shown) [a-52] | 100% | 91% | 20% | 89% | 89% |  |  |  |  | 
COC(=O)CC1(C#N)Nc2c([S+]([O-])C(F)(F)F)c(C#N)nn2-c2ncc(C(F)(F)F)cc21 (stereo not shown) [a-56] | 100% | 100% | 16% | 93% | 90% |  |  |  |  | 
N#Cc1nn2c(c1[S+]([O-])C(F)(F)F)NC(C#N)(CC(=O)C(F)(F)F)c1cc(C(F)(F)F)cnc1-2 (stereo not shown) [a-57] | 100% | 100% | 24% | 100% | 100% |  |  |  |  | 
N#CCC1(C(F)(F)F)Nc2c([S+]([O-])C(F)(F)F)c(C#N)nn2-c2ncc(C(F)(F)F)cc21 (stereo not shown) [a-59] | 96% | 100% | 28% | 97% | 91% |  |  |  |  | 
COC(=O)CC1(C(F)(F)F)Nc2c([S+]([O-])C(F)(F)F)c(C#N)nn2-c2ncc(C(F)(F)F)cc21 (stereo not shown) [a-62] | 100% | 100% | 21% | 99% | 100% |  |  |  |  | 
N#Cc1nn2c(c1[S+]([O-])C(F)(F)F)NC(CC(=O)C(F)(F)F)(C(F)(F)F)c1cc(C(F)(F)F)cnc1-2 (stereo not shown) [a-63] | 100% | 100% | 24% | 100% | 100% |  |  |  |  | 
COC(=O)C1Nc2c([S+]([O-])C(F)(F)F)c(C#N)nn2-c2ncc(C(F)(F)F)cc21 (stereo not shown) [a-64] | 100% | 100% | 20% | 99% | 99% |  |  |  |  | 
COC(=O)CC1Nc2c([S+]([O-])C(F)(F)F)c(C#N)nn2-c2ncc(C(F)(F)F)cc21 (stereo not shown) [a-65] | 100% | 100% | 26% | 100% | 100% |  |  |  |  | 
N#Cc1nn2c(c1[S+]([O-])C(F)(F)F)NC(C(=O)C(F)(F)F)c1cc(C(F)(F)F)cnc1-2 (stereo not shown) [a-71] | 100% | 100% | 24% | 100% | 99% |  |  |  |  | 
N#Cc1nn2c(c1[S+]([O-])C(F)(F)F)NC(C#N)c1cc(C(F)(F)F)cnc1-2 (stereo not shown) [a-72] | 96% | 100% | 20% | 91% | 89% |  |  |  |  | 
N#Cc1nn2c(c1[S+]([O-])C(F)(F)F)NC(Cl)c1cc(C(F)(F)F)cnc1-2 (stereo not shown) [a-80] | 91% | 100% | 10% | 100% | 85% |  |  |  |  | 
COC(=O)C1Nc2c([S+]([O-])C(F)(F)F)c(C(F)(F)F)nn2-c2ncc(C(F)(F)F)cc21 (stereo not shown) [a-87] | 96% | 100% | 20% | 97% | 100% |  |  |  |  | 
COC(=O)CC1Nc2c([S+]([O-])C(F)(F)F)c(C(F)(F)F)nn2-c2ncc(C(F)(F)F)cc21 (stereo not shown) [a-88] | 100% | 100% | 34% | 100% | 100% |  |  |  |  | 
N#CC1Nc2c([S+]([O-])C(F)(F)F)c(C(F)(F)F)nn2-c2ncc(C(F)(F)F)cc21 (stereo not shown) [a-95] | 96% | 100% | 21% | 92% | 89% |  |  |  |  | 
CC=CC1Nc2c([S+]([O-])C(F)(F)F)c(C(F)(F)F)nn2-c2ncc(C(F)(F)F)cc21 (stereo not shown) [a-109] | 95% | 100% | 20% | 90% | 89% |  |  |  |  | 
COC(=O)CC1(C(=O)OC)Nc2c(Cl)c(C#N)nn2-c2ncc(C(F)(F)F)cc21 (stereo not shown) [a-133] | 100% | 100% | 24% | 100% | 100% |  |  |  |  | 
COC(=O)CC1(C(=O)OC)Nc2c([S+]([O-])C(F)(F)F)c(C#N)nn2-c2cncc(Cl)c21 (stereo not shown) [b-1] |  |  |  |  |  | 100% | 100% | 20% | 97% | 100%
COC(=O)C1(CC#N)Nc2c([S+]([O-])C(F)(F)F)c(C#N)nn2-c2cncc(Cl)c21 (stereo not shown) [b-2] |  |  |  |  |  | 100% | 100% | 19% | 93% | 95%
CCOC(=O)C1(CC(=O)OC)Nc2c([S+]([O-])C(F)(F)F)c(C#N)nn2-c2cncc(Cl)c21 (stereo not shown) [b-23] |  |  |  |  |  | 96% | 100% | 10% | 97% | 95%
N#Cc1nn2c(c1[S+]([O-])C(F)(F)F)NC(CC(=O)C(F)(F)F)(C(=O)C(F)(F)F)c1c(Cl)cncc1-2 (stereo not shown) [b-25] |  |  |  |  |  | 100% | 100% | 26% | 100% | 100%
N#Cc1nn2c(c1[S+]([O-])C(F)(F)F)NC(Cc1ccccc1)(C(=O)C(F)(F)F)c1c(Cl)cncc1-2 (stereo not shown) [b-27] |  |  |  |  |  | 91% | 100% | 19% | 100% | 89%
COC(=O)CC1(C(=O)C(F)(F)F)Nc2c([S+]([O-])C(F)(F)F)c(C#N)nn2-c2cncc(Cl)c21 (stereo not shown) [b-28] |  |  |  |  |  | 100% | 100% | 16% | 100% | 99%
N#CCC1(C(=O)C(F)(F)F)Nc2c([S+]([O-])C(F)(F)F)c(C#N)nn2-c2cncc(Cl)c21 (stereo not shown) [b-30] |  |  |  |  |  | 90% | 100% | 25% | 94% | 85%
CC(=O)C1(CBr)Nc2c([S+]([O-])C(F)(F)F)c(C#N)nn2-c2cncc(Cl)c21 (stereo not shown) [b-34] |  |  |  |  |  | 90% | 100% | 10% | 100% | 87%
CC(=O)C1(CC(=O)C(F)(F)F)Nc2c([S+]([O-])C(F)(F)F)c(C#N)nn2-c2cncc(Cl)c21 (stereo not shown) [b-37] |  |  |  |  |  | 86% | 99% | 20% | 94% | 90%
CNC1(CC#N)Nc2c([S+]([O-])C(F)(F)F)c(C#N)nn2-c2cncc(Cl)c21 (stereo not shown) [b-43] |  |  |  |  |  | 89% | 89% | 19% | 90% | 80%
N#CCC1(Cl)Nc2c([S+]([O-])C(F)(F)F)c(C#N)nn2-c2cncc(Cl)c21 (stereo not shown) [b-47] |  |  |  |  |  | 95% | 100% | 18% | 90% | 85%
